# From ChEMBL document CHEMBL4311999, “3-Hydrazinoisatin-based benzenesulfonamides as novel carbonic anhydrase inhibitors endowed with anticancer activity: Synthesis, in vitro biological evaluation and in silico insights” (Eur J Med Chem, 2019)
# How the values were obtained:
# Carbonic anhydrase 12 = Carbonic anhydrase 12 (Homo sapiens, UniProt O43570); test: Inhibition of recombinant human carbonic anhydrase 12 preincubated for 15 mins by phenol red dye based stopped flow CO2 hydration assay
# Carbonic anhydrase 1 = Carbonic anhydrase 1 (Homo sapiens, UniProt P00915); test: Inhibition of recombinant human carbonic anhydrase 1 preincubated for 15 mins by phenol red dye based stopped flow CO2 hydration assay
# Carbonic anhydrase 1, sequence (P00915 whole entry): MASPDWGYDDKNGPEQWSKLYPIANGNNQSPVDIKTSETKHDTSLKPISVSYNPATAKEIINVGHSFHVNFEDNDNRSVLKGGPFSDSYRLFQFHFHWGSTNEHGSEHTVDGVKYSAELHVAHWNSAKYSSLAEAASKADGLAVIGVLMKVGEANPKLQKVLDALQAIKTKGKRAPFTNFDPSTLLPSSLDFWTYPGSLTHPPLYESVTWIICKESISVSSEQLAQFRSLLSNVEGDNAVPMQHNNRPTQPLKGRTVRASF
# Carbonic anhydrase 9 [1] = target: T1, Carbonic anhydrase 9 (Homo sapiens, UniProt Q16790); test: Inhibition of recombinant human carbonic anhydrase 9 preincubated for 15 mins by phenol red dye based stopped flow CO2 hydration assay
# Carbonic anhydrase 2 = Carbonic anhydrase 2 (Homo sapiens, UniProt P00918); test: Inhibition of recombinant human carbonic anhydrase 2 preincubated for 15 mins by phenol red dye based stopped flow CO2 hydration assay
# SK-OV-3 = test: Growth inhibition of human SKOV3 cells at 10 uM incubated for 48 hrs by sulforhodamine B assay relative to control; format: functional; conditions: SK-OV-3, 48 h, read-out: GI
# 786-0 = test: Growth inhibition of human 786-0 cells at 10 uM incubated for 48 hrs by sulforhodamine B assay relative to control; format: functional; conditions: 786-0, 48 h, read-out: GI
# UACC-62 = test: Growth inhibition of human UACC62 cells at 10 uM incubated for 48 hrs by sulforhodamine B assay relative to control; format: functional; conditions: UACC-62, 48 h, read-out: GI
# Carbonic anhydrase 9 [2] = target: T1, Carbonic anhydrase 9; conditions: at 1 µM
# Description: Inhibition of recombinant human carbonic anhydrase 9 at 1 uM preincubated for 15 mins by phenol red dye based stopped flow CO2 hydration assay (Rvb = 0%)
# MCF7 = test: Growth inhibition of human MCF7 cells at 10 uM incubated for 48 hrs by sulforhodamine B assay relative to control; format: functional; conditions: MCF7, 48 h, read-out: GI
# ACHN = test: Growth inhibition of human ACHN cells at 10 uM incubated for 48 hrs by sulforhodamine B assay relative to control; format: functional; conditions: read-out: GI
# OVCAR-4 = test: Growth inhibition of human OVCAR4 cells at 10 uM incubated for 48 hrs by sulforhodamine B assay relative to control; format: functional; conditions: OVCAR-4, 48 h, read-out: GI
# A549 = test: Growth inhibition of human A549/ATCC cells at 10 uM incubated for 48 hrs by sulforhodamine B assay relative to control; format: functional; conditions: A549, 48 h, read-out: GI
# RPMI-8226 = test: Growth inhibition of human RPMI8226 cells at 10 uM incubated for 48 hrs by sulforhodamine B assay relative to control; format: functional; conditions: RPMI-8226, 48 h, read-out: GI
# Carbonic anhydrase 9 [3] = target: T1, Carbonic anhydrase 9; conditions: at 0.1 µM
# Description: Inhibition of recombinant human carbonic anhydrase 9 at 0.1 uM preincubated for 15 mins by phenol red dye based stopped flow CO2 hydration assay (Rvb = 0%)
# NCI-H522 = test: Growth inhibition of human NCI-H522 cells at 10 uM incubated for 48 hrs by sulforhodamine B assay relative to control; format: functional; conditions: NCI-H522, 48 h, read-out: GI
# A498 = test: Growth inhibition of human A498 cells at 10 uM incubated for 48 hrs by sulforhodamine B assay relative to control; format: functional; conditions: A498, 48 h, read-out: GI
# TK-10 = test: Growth inhibition of human TK10 cells at 10 uM incubated for 48 hrs by sulforhodamine B assay relative to control; format: functional; conditions: TK-10, 48 h, read-out: GI
# SW-620 = test: Growth inhibition of human SW620 cells at 10 uM incubated for 48 hrs by sulforhodamine B assay relative to control; format: functional; conditions: SW-620, 48 h, read-out: GI
# DU-145 = test: Growth inhibition of human DU145 cells at 10 uM incubated for 48 hrs by sulforhodamine B assay relative to control; format: functional; conditions: DU-145, 48 h, read-out: GI
# MOLT-4 = test: Growth inhibition of human MOLT4 cells at 10 uM incubated for 48 hrs by sulforhodamine B assay relative to control; format: functional; conditions: MOLT-4, 48 h, read-out: GI
# Carbonic anhydrase 9 [4] = target: T1, Carbonic anhydrase 9; conditions: at 0.01 µM
# Description: Inhibition of recombinant human carbonic anhydrase 9 at 0.01 uM preincubated for 15 mins by phenol red dye based stopped flow CO2 hydration assay (Rvb = 0%)
# HCT-116 = test: Growth inhibition of human HCT116 cells at 10 uM incubated for 48 hrs by sulforhodamine B assay relative to control; format: functional; conditions: HCT-116, 48 h, read-out: GI
# UO-31 = test: Growth inhibition of human UO31 cells at 10 uM incubated for 48 hrs by sulforhodamine B assay relative to control; format: functional; conditions: UO-31, 48 h, read-out: GI
# NCI-H226 = test: Growth inhibition of human NCI-H226 cells at 10 uM incubated for 48 hrs by sulforhodamine B assay relative to control; format: functional; conditions: NCI-H226, 48 h, read-out: GI
# K562 = test: Growth inhibition of human K562 cells at 10 uM incubated for 48 hrs by sulforhodamine B assay relative to control; format: functional; conditions: K562, 48 h, read-out: GI
# EKVX = test: Growth inhibition of human EKVX cells at 10 uM incubated for 48 hrs by sulforhodamine B assay relative to control; format: functional; conditions: read-out: GI
# CAKI-1 = test: Growth inhibition of human Caki1 cells at 10 uM incubated for 48 hrs by sulforhodamine B assay relative to control; format: functional; conditions: CAKI-1, 48 h, read-out: GI
# Carbonic anhydrase 9 [5] = target: T1, Carbonic anhydrase 9; conditions: at 1 nM
# KM12 = test: Growth inhibition of human KM12 cells at 10 uM incubated for 48 hrs by sulforhodamine B assay relative to control; format: functional; conditions: KM12, 48 h, read-out: GI
# IGROV-1 = test: Growth inhibition of human IGROV1 cells at 10 uM incubated for 48 hrs by sulforhodamine B assay relative to control; format: functional; conditions: IGROV-1, 48 h, read-out: GI
# Carbonic anhydrase 12, sequence (O43570 whole entry): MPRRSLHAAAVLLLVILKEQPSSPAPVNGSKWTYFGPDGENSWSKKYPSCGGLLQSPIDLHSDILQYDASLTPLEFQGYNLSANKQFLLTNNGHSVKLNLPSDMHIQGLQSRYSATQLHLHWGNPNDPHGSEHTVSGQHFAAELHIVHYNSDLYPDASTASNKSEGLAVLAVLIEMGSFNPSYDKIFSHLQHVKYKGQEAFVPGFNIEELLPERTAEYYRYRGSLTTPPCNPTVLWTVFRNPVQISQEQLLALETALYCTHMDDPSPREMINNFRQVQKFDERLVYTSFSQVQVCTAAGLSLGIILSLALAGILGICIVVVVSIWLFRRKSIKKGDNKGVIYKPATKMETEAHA
smiles,measurement,setting,value
NS(=O)(=O)c1ccc(N/N=C2\C(=O)Nc3ccc(Cl)cc32)cc1 [GW280670X],Ki,Carbonic anhydrase 12,11.9 nM
same,Ki,Carbonic anhydrase 1,1810 nM
same,Ki,Carbonic anhydrase 9 [1],8.3 nM
same,Ki,Carbonic anhydrase 2,35.9 nM
CCOC(=O)CN1C(=O)/C(=N\Nc2ccc(S(N)(=O)=O)cc2)c2ccccc21,Ki,Carbonic anhydrase 9 [1],15.9 nM
CCCN1C(=O)/C(=N\Nc2ccc(S(N)(=O)=O)cc2)c2cc(Cl)ccc21,Ki,Carbonic anhydrase 9 [1],13.1 nM
CCN1C(=O)/C(=N\Nc2ccc(S(N)(=O)=O)cc2)c2cc(Br)ccc21,Ki,Carbonic anhydrase 9 [1],42 nM
CN1C(=O)/C(=N\Nc2ccc(S(N)(=O)=O)cc2)c2cc(Br)ccc21,Ki,Carbonic anhydrase 9 [1],40.1 nM
CCOC(=O)CN1C(=O)/C(=N\Nc2ccc(S(N)(=O)=O)cc2)c2cc(Cl)ccc21,inhibition of growth at 10 µM,SK-OV-3,10%
same,inhibition of growth at 10 µM,786-0,10%
same,inhibition of growth at 10 µM,UACC-62,24%
same,inhibition,Carbonic anhydrase 9 [2],76%
same,inhibition of growth at 10 µM,MCF7,21%
same,inhibition of growth at 10 µM,ACHN,30%
same,inhibition of growth at 10 µM,OVCAR-4,10%
same,inhibition of growth at 10 µM,A549,17%
same,inhibition of growth at 10 µM,RPMI-8226,11%
same,inhibition,Carbonic anhydrase 9 [3],66%
same,inhibition of growth at 10 µM,NCI-H522,18%
same,inhibition of growth at 10 µM,A498,10%
same,inhibition of growth at 10 µM,TK-10,29%
same,inhibition of growth at 10 µM,SW-620,10%
same,inhibition of growth at 10 µM,DU-145,10%
same,inhibition of growth at 10 µM,MOLT-4,21%
same,Ki,Carbonic anhydrase 9 [1],38.8 nM
same,inhibition,Carbonic anhydrase 9 [4],42%
same,inhibition of growth at 10 µM,HCT-116,10%
same,inhibition of growth at 10 µM,UO-31,18%
same,inhibition of growth at 10 µM,NCI-H226,18%
same,inhibition of growth at 10 µM,K562,15%
same,inhibition of growth at 10 µM,EKVX,16%
same,inhibition of growth at 10 µM,CAKI-1,24%
same,inhibition,Carbonic anhydrase 9 [5],11%
same,inhibition of growth at 10 µM,KM12,12%
same,inhibition of growth at 10 µM,IGROV-1,13%
CCN1C(=O)/C(=N\Nc2ccc(S(N)(=O)=O)cc2)c2ccccc21,Ki,Carbonic anhydrase 9 [1],25.8 nM
